In general, IC50 refers to the concentration at which inhibition is half-maximal.

Read-outs that look alike come from different tables or passages of the source.

The target in assay [1] is MERS-CoV 3CLpro (Middle East respiratory syndrome-related coronavirus, UniProt K9N7C7). In words: biochemical.
Assay [2] deals with SARS-CoV-2 3CLpro (Severe acute respiratory syndrome coronavirus 2, UniProt P0DTD1). In words: biochemical.
Assay [3] concerns the target HCoV-229E 3CLpro (Human coronavirus 229E, UniProt P0C6X1). As to the kind of experiment: HCoV-229E 3CLpro inhibition assay (FRET). The class given is biochemical.
The target in assay [4] is SARS-CoV 3CLpro (Severe acute respiratory syndrome coronavirus, UniProt P0C6X7). In words: biochemical.

Chain of MERS-CoV 3CLpro (K9N7C7 3248-3553): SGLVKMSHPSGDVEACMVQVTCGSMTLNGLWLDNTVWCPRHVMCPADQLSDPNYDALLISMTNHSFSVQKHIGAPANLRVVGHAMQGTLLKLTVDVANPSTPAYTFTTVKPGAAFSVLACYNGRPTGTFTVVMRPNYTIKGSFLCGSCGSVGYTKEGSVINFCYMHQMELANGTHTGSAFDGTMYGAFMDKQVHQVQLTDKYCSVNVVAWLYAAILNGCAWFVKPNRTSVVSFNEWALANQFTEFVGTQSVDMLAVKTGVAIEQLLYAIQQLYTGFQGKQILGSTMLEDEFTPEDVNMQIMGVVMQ
Chain of HCoV-229E 3CLpro (P0C6X1 2966-3267): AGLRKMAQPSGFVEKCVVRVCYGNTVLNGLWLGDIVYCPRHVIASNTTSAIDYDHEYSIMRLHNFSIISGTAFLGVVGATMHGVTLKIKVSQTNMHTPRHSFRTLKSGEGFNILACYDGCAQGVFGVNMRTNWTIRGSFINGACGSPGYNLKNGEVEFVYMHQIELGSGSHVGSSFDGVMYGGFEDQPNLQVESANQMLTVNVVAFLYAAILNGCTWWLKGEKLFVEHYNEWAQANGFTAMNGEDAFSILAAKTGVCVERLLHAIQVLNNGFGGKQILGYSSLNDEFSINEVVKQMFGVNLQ

Turning to `CCC(C)(C)[C@H](NC(=O)C(F)(F)F)C(=O)N1C[C@H]2[C@@H]([C@H]1C(=O)NN(C[C@@H]1CCNC1=O)C(=O)[C@H](F)Cl)C2(C)C` [Example 86, N-[(1S)-1-[(1R,2S,5S)-2-[[[(2R)-2-chloro-2-fluoro-acetyl]-[[(3S)-2-oxopyrrolidin-3-yl]methyl]amino]carbamoyl]-6,6-dimethyl-3-azabicyclo[3.1.0]hexane-3-carbonyl]-2,2-dimethyl-butyl]-2,2,2-trifluoro-acetamide], the IC50 is 86 nM in assay [1], 7 nM in assay [2], 35 nM in assay [3] and 19 nM in assay [4].

As for `CC(C)(C)[C@H](NC(=O)C(F)(F)F)C(=O)N1CCC(C)(C)[C@H]1C(=O)NN(C[C@@H]1CCNC1=O)C(=O)[C@H](F)Cl` [Example 155a, N-[(1S)-1-[(2S)-2-[[[(2R)-2-chloro-2-fluoro-acetyl]-[[(3S)-2-oxopyrrolidin-3-yl]methyl]amino]carbamoyl]-3,3-dimethyl-pyrrolidine-1-carbonyl]-2,2-dimethyl-propyl]-2,2,2-trifluoro-acetamide], the IC50 in assay [1] was determined as 1330 nM; in assay [2], 24 nM; in assay [3] it was 739 nM; in assay [4], 28 nM.

For `C[C@@H]1C[C@@H](C(=O)NN(C[C@@H]2CCNC2=O)C(=O)[C@H](F)Cl)N(C(=O)[C@@H](NC(=O)C(F)(F)F)C(C)(C)C)C1` [Example 7, N-[(1S)-1-[(2S,4R)-2-[[[(2R)-2-chloro-2-fluoro-acetyl]-[[(3S)-2-oxopyrrolidin-3-yl]methyl]amino]carbamoyl]-4-methyl-pyrrolidine-1-carbonyl]-2,2-dimethyl-propyl]-2,2,2-trifluoro-acetamide], the 50% inhibitory concentration (IC50) came out at 379 nM in assay [1], 8 nM in assay [2], 193 nM in assay [3] and 17 nM in assay [4].

For `CCC(C)(C)[C@H](NC(=O)C1CC1)C(=O)N1CC(C)(C)C[C@H]1C(=O)NN(C[C@@H]1CCCNC1=O)C(=O)[C@H](F)Cl` [Example 168a, N-[(1S)-1-[(2S)-2-[[[(2R)-2-chloro-2-fluoro-acetyl]-[[(3S)-2-oxo-3-piperidyl]methyl]amino]carbamoyl]-4,4-dimethyl-pyrrolidine-1-carbonyl]-2,2-dimethyl-butyl]cyclopropanecarboxamide], the IC50 is 290 nM in assay [1], 11 nM in assay [2], 104 nM in assay [3] and 16 nM in assay [4].

With `CC[C@H](C)[C@H](NC(=O)C1CC(F)(F)C1)C(=O)N1C[C@H]2[C@@H]([C@H]1C(=O)NN(C[C@@H]1CCNC1=O)C(=O)[C@H](F)Cl)C2(C)C` [Example 58, N-[(1S,2S)-1-[(1R,2S,5S)-2-[[[(2R)-2-chloro-2-fluoro-acetyl]-[[(3S)-2-oxopyrrolidin-3-yl]methyl]amino]carbamoyl]-6,6-dimethyl-3-azabicyclo[3.1.0]hexane-3-carbonyl]-2-methyl-butyl]-3,3-difluoro-cyclobutanecarboxamide], the IC50 amounted to 73 nM in assay [1], 11 nM in assay [2], 26 nM in assay [3] and 15 nM in assay [4].

Regarding `CCC(CC)[C@H](NC(=O)C1CC(F)(F)C1)C(=O)N1C[C@H]2[C@@H]([C@H]1C(=O)NN(C[C@@H]1CCNC1=O)C(=O)[C@H](F)Cl)C2(C)C` [Example 130, N-[(1S)-1-[(1R,2S,5S)-2-[[[(2R)-2-chloro-2-fluoro-acetyl]-[[(3S)-2-oxopyrrolidin-3-yl]methyl]amino]carbamoyl]-6,6-dimethyl-3-azabicyclo[3.1.0]hexane-3-carbonyl]-2-ethyl-butyl]-3,3-difluoro-cyclobutanecarboxamide], the IC50 in assay [1] amounted to 87 nM; in assay [2], 12 nM; in assay [3], 32 nM; in assay [4], 19 nM.

For the compound `CC(C)(C)[C@H](NC(=O)[C@@H]1CC1(F)F)C(=O)N1C[C@H]2[C@@H]([C@H]1C(=O)NN(C[C@@H]1CCNC1=O)C(=O)[C@@H](F)Cl)C2(C)C` [Example 95, (1S)—N-[(1S)-1-[(1R,2S,5S)-2-[[[(2S)-2-chloro-2-fluoro-acetyl]-[[(3S)-2-oxopyrrolidin-3-yl]methyl]amino]carbamoyl]-6,6-dimethyl-3-azabicyclo[3.1.0]hexane-3-carbonyl]-2,2-dimethyl-propyl]-2,2-difluoro-cyclopropanecarboxamide], the IC50 in assay [1] came to 71 nM; in assay [2], 10 nM; in assay [3], 28 nM; in assay [4] it was 14 nM.

In the case of `CC[C@@H](C)[C@H](NC(=O)[C@@H](C)F)C(=O)N1C[C@H]2[C@@H]([C@H]1C(=O)NN(C[C@@H]1CCNC1=O)C(=O)[C@H](F)Cl)C2(C)C` [Example 116, (2R)—N-[(1S,2R)-1-[(1R,2S,5S)-2-[[[(2R)-2-chloro-2-fluoro-acetyl]-[[(3S)-2-oxopyrrolidin-3-yl]methyl]amino]carbamoyl]-6,6-dimethyl-3-azabicyclo[3.1.0]hexane-3-carbonyl]-2-methyl-butyl]-2-fluoro-propanamide], the IC50 was 98 nM in assay [1], 14 nM in assay [2], 36 nM in assay [3] and 18 nM in assay [4].

For the compound `CC(C)(C)[C@H](NC(=O)C(F)(F)F)C(=O)N1C[C@@H]2CCC[C@@H]2[C@H]1C(=O)NN(C[C@@H]1CCNC1=O)C(=O)[C@H](F)Cl` [Example 4, N-[(1S)-1-[(3S,3aS,6aR)-3-[[[(2R)-2-chloro-2-fluoro-acetyl]-[[(3S)-2-oxopyrrolidin-3-yl]methyl]amino]carbamoyl]-3,3a,4,5,6,6a-hexahydro-1H-cyclopenta[c]pyrrole-2-carbonyl]-2,2-dimethyl-propyl]-2,2,2-trifluoro-acetamide], the IC50 came out at 70 nM in assay [1], 6 nM in assay [2] (read-out: IC50 in SARS-CoV-2 3CLpro assay), 39 nM in assay [3] and 16 nM in assay [4].

For `CC[C@H](C)[C@H](NC(=O)C1CC1)C(=O)N1C[C@H]2[C@@H]([C@H]1C(=O)NN(C[C@@H]1CCNC1=O)C(=O)[C@H](F)Cl)C2(C)C` [Example 57, N-[(1S,2S)-1-[(1R,2S,5S)-2-[[[(2R)-2-chloro-2-fluoro-acetyl]-[[(3S)-2-oxopyrrolidin-3-yl]methyl]amino]carbamoyl]-6,6-dimethyl-3-azabicyclo[3.1.0]hexane-3-carbonyl]-2-methyl-butyl]cyclopropanecarboxamide], the IC50 in assay [1] was found to be 62 nM; in assay [2] it was 11 nM; in assay [3], 20 nM; in assay [4] it was 13 nM.

With `CC(C)(C)[C@H](NC(=O)C1CC(F)(F)C1)C(=O)N1C[C@H]2[C@@H]([C@H]1C(=O)NN(C[C@@H]1CCNC1=O)C(=O)[C@@H](F)Cl)C2(C)C` [Example 93, N-[(1S)-1-[(1R,2S,5S)-2-[[[(2S)-2-chloro-2-fluoro-acetyl]-[[(3S)-2-oxopyrrolidin-3-yl]methyl]amino]carbamoyl]-6,6-dimethyl-3-azabicyclo[3.1.0]hexane-3-carbonyl]-2,2-dimethyl-propyl]-3,3-difluoro-cyclobutanecarboxamide], the IC50 in assay [1] is 94 nM; in assay [2], 31 nM; in assay [3], 42 nM; in assay [4] it was 54 nM.

Regarding `CC[C@H](C)[C@H](NC(=O)[C@H](F)Cl)C(=O)N1C[C@H]2[C@@H]([C@H]1C(=O)NN(C[C@@H]1CCNC1=O)C(=O)[C@H](F)Cl)C2(C)C` [Example 185, (2R)-2-chloro-N-[(1S,2S)-1-[(1R,2S,5S)-2-[[[(2R)-2-chloro-2-fluoro-acetyl]-[[(3S)-2-oxopyrrolidin-3-yl]methyl]amino]carbamoyl]-6,6-dimethyl-3-azabicyclo[3.1.0]hexane-3-carbonyl]-2-methyl-butyl]-2-fluoro-acetamide], the IC50 in assay [1] came to 99 nM; in assay [2], 11 nM; in assay [3], 40 nM; in assay [4] it was 21 nM.

`CC[C@H](C)[C@H](NC(=O)C(F)F)C(=O)N1C[C@H]2[C@@H]([C@H]1C(=O)NN(C[C@@H]1CCCNC1=O)C(=O)[C@H](F)Cl)C2(C)C` [Example 176, N-[(1S,2S)-1-[(1R,2S,5S)-2-[[[(2R)-2-chloro-2-fluoro-acetyl]-[[(3S)-2-oxo-3-piperidyl]methyl]amino]carbamoyl]-6,6-dimethyl-3-azabicyclo[3.1.0]hexane-3-carbonyl]-2-methyl-butyl]-2,2-difluoro-acetamide]: the 50% inhibitory concentration (IC50) in assay [1] worked out at 96 nM; in assay [2], 11 nM; in assay [3], 28 nM; in assay [4], 16 nM.

`CC(C)(C)[C@H](NC(=O)C(F)(F)F)C(=O)N1C[C@H]2[C@@H]([C@H]1C(=O)NN(C[C@@H]1CCNC1=O)C(=O)[C@H](F)Cl)C2(C)C` [Example 1, N-[(1S)-1-[(1R,2S,5S)-2-[[[(2R)-2-chloro-2-fluoro-acetyl]-[[(3S)-2-oxopyrrolidin-3-yl]methyl]amino]carbamoyl]-6,6-dimethyl-3-azabicyclo[3.1.0]hexane-3-carbonyl]-2,2-dimethyl-propyl]-2,2,2-trifluoro-acetamide]: the IC50 in assay [1] worked out at 115 nM; in assay [2], 10 nM; in assay [3], 35 nM; in assay [4] it was 15 nM.

For `CC[C@H](C)[C@H](NC(=O)C1CC1(F)F)C(=O)N1C[C@H]2[C@@H]([C@H]1C(=O)NN(C[C@@H]1CCNC1=O)C(=O)[C@@H](F)Cl)C2(C)C` (mixture of isomers) [Example 111, Rac-2,2-difluoro-N-[(1S,2S)-2-methyl-1-[(1R,2S,5S)-6,6-dimethyl-2-[[[(2S)-2-chloro-2-fluoro-acetyl]-[[(3S)-2-oxopyrrolidin-3-yl]methyl]amino]carbamoyl]-3-azabicyclo[3.1.0]hexane-3-carbonyl]butyl]cyclopropanecarboxamide], the IC50 came out at 96 nM in assay [1], 16 nM in assay [2], 37 nM in assay [3] and 28 nM in assay [4].
